# Source: US20250059188A1, “ARYLSULPHONAMIDE COMPOUNDS” (Anaxis Pharma Pty Ltd, priority 2021, published 2025)
# How the values were obtained:
# [1] = system: U937 human histiocytic leukemia cell line; experiment: Inhibition of TSQ induced necroptosis in U937 cells (CellTitre-Glo); conditions: Homo sapiens, U-937, TSQ cocktail (TNF, Smac mimetic, Q-VD-OPh), 48 hours, read-out: Inhibition of TSQ-induced necroptosis (IC50 cell-based assay)
# Method in brief: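 Necroptosis was induced with TNF-Fc (100 ng/ml), Smac mimetic (500 nM) and Q-VD-OPh (10 μM) in 20000 U937 cells/well exposed to a 10-point, 3-fold compound series (top 36 μM, 0.3% DMSO). ATP luminescence read after 48 h; 4-parameter fit gave IC50. Parallel TSQ-free wells assessed compound toxicity.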
# human RIPK3 = human RIPK3 (Homo sapiens (Human), UniProt Q9Y572); experiment: KINOMEscan binding assay, human RIPK3; conditions: equilibrium dissociation constant
# Chain of human RIPK3 (Q9Y572 whole entry): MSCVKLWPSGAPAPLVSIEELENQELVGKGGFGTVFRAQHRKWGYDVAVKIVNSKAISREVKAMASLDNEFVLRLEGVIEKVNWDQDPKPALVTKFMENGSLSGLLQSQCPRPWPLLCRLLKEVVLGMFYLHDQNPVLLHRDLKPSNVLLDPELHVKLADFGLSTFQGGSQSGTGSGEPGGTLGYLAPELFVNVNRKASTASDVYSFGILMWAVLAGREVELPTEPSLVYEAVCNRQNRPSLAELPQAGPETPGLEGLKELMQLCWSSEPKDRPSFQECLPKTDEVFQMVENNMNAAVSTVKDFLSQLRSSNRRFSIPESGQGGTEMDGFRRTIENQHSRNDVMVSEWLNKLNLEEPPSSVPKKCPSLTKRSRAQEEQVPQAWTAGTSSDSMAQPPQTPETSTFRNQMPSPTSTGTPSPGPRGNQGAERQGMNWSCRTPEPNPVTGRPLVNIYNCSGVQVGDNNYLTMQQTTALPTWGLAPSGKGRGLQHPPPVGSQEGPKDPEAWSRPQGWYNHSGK
# Method in brief: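 Binding constants were derived by fitting qPCR-quantified bead-retained kinase against compound concentration to the Hill equation, slope set at −1. Compound series were 3-fold over 11 points with 1% DMSO; most top concentrations were 30,000 nM. Kinases were T7-phage-tagged or HEK-293-produced with DNA tags.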
SMILES,Kd (human RIPK3) [nM],IC50 [1] [nM]
"CC1C(n2cc(-c3cnc(N)c4c(-c5ccc(NS(=O)(=O)C(F)F)c(O[C@@H](C)c6ccc(F)cc6)c5)nn(C)c34)cn2)CN1C (stereo partly drawn) [Compound 147, N-(4-(4-amino-7-(1-(1,2-dimethylazetidin-3-yl)-1H-pyrazol-4-yl)-1-methyl-1H-pyrazolo[4,3-c]pyridin-3-yl)-2-((S)-1-(4-fluorophenyl)ethoxy)phenyl)-1,1-difluoromethanesulfonamide]",> 10000,10 to 1000
"C[C@H](Oc1cc(-c2nn(C)c3c(-c4cnn(C5CCN(C)C(C(F)(F)F)C5)c4)cnc(N)c23)ccc1NS(=O)(=O)C(F)F)c1ccc(F)cc1 (stereo partly drawn) [Compound 148, N-(4-(4-amino-1-methyl-7-(1-(1-methyl-2-(trifluoromethyl)piperidin-4-yl)-1H-pyrazol-4-yl)-1H-pyrazolo[4,3-c]pyridin-3-yl)-2-((S)-1-(4-fluorophenyl)ethoxy)phenyl)-1,1-difluoromethanesulfonamide]",> 10000,< 10
"C[C@H](Oc1cc(-c2nn(C)c3c(-c4cnn(C5CC6CCC(C5)N6CC(F)(F)F)c4)cnc(N)c23)ccc1NS(=O)(=O)C(F)F)c1ccc(F)cc1 (stereo partly drawn) [Compound 153, N-(4-(4-amino-1-methyl-7-(1-(8-(2,2,2-trifluoroethyl)-8-azabicyclo[3.2.1]octan-3-yl)-1H-pyrazol-4-yl)-1H-pyrazolo[4,3-c]pyridin-3-yl)-2-((S)-1-(4-fluorophenyl)ethoxy)phenyl)-1,1-difluoromethanesulfonamide]",> 10000,10 to 1000
"Cc1c(-c2cnc(N)c3c(-c4ccc(NS(=O)(=O)C(F)F)c(O[C@@H](C)c5ccc(F)cc5)c4)nn(C)c23)cnn1C1CCN(C)C(C)(C)C1 (stereo partly drawn) [Compound 157, N-(4-(4-amino-1-methyl-7-(5-methyl-1-(1,2,2-trimethylpiperidin-4-yl)-1H-pyrazol-4-yl)-1H-pyrazolo[4,3-c]pyridin-3-yl)-2-((S)-1-(4-fluorophenyl)ethoxy)phenyl)-1,1-difluoromethanesulfonamide]",> 10000,10 to 1000
"C[C@H](Oc1cc(-c2nn(C)c3c(-c4cnn(C5CCN(C)C(C)(C)C5)c4)cnc(N)c23)ccc1NS(=O)(=O)C(F)F)c1ccc(Cl)cc1 (stereo partly drawn) [Compound 159, N-(4-(4-amino-1-methyl-7-(1-(1,2,2-trimethylpiperidin-4-yl)-1H-pyrazol-4-yl)-1H-pyrazolo[4,3-c]pyridin-3-yl)-2-((S)-1-(4-chlorophenyl)ethoxy)phenyl)-1,1-difluoromethanesulfonamide]",> 10000,< 10
"C[C@H](Oc1cc(-c2nn(C)c3c(-c4cnn(C5CC(C)(C)N(C)C(C)(C)C5)c4)cnc(N)c23)ccc1NS(=O)(=O)C(F)F)c1ccc(F)cc1 [Compound 162, (S)-N-(4-(4-amino-1-methyl-7-(1-(1,2,2,6,6-pentamethylpiperidin-4-yl)-1H-pyrazol-4-yl)-1H-pyrazolo[4,3-c]pyridin-3-yl)-2-(1-(4-fluorophenyl)ethoxy)phenyl)-1,1-difluoromethanesulfonamide]",> 10000,< 10
"C[C@H](Oc1cc(-c2nn(C)c3c(-c4cnn(C5C[C@H]6CNC[C@H]6C5)c4)cnc(N)c23)ccc1NS(=O)(=O)C(F)F)c1ccc(F)cc1 (stereo partly drawn) [Compound 163, N-(4-(4-amino-1-methyl-7-(1-((3aR,6aS)-octahydrocyclopenta[c]pyrrol-5-yl)-1H-pyrazol-4-yl)-1H-pyrazolo[4,3-c]pyridin-3-yl)-2-((S)-1-(4-fluorophenyl)ethoxy)phenyl)-1,1-difluoromethanesulfonamide]",> 10000,10 to 1000
"C[C@H](Oc1cc(-c2nn(C)c3c(-c4cnn(C5C[C@@H]6CN(C)C[C@@H]6C5)c4)cnc(N)c23)ccc1NS(=O)(=O)C(F)F)c1ccc(F)cc1 (stereo partly drawn) [Compound 164, N-(4-(4-amino-1-methyl-7-(1-((3aR,6aS)-2-methyloctahydrocyclopenta[c]pyrrol-5-yl)-1H-pyrazol-4-yl)-1H-pyrazolo[4,3-c]pyridin-3-yl)-2-((S)-1-(4-fluorophenyl)ethoxy)phenyl)-1,1-difluoromethanesulfonamide]",> 10000,< 10
"C[C@H](Oc1cc(-c2nn(C)c3c(-c4ccc5c(cnn5C)c4)cnc(N)c23)ccc1NS(=O)(=O)C(F)F)c1ccc(F)cc1 [Compound 166, (S)-N-(4-(4-amino-1-methyl-7-(1-methyl-1H-indazol-5-yl)-1H-pyrazolo[4,3-c]pyridin-3-yl)-2-(1-(4-fluorophenyl)ethoxy)phenyl)-1,1-difluoromethanesulfonamide]",> 10000,10 to 1000

# Second part, led by results:
Kd (human RIPK3) [nM],SMILES,IC50 [1] [nM]
> 10000,"C[C@H](Oc1cc(-c2nn(C)c3c(-c4cnn(CCC(F)(F)F)c4)cnc(N)c23)ccc1NS(=O)(=O)C(F)F)c1ccc(F)cc1 [Compound 131, (S)-N-(4-(4-amino-1-methyl-7-(1-(3,3,3-trifluoropropyl)-1H-pyrazol-4-yl)-1H-pyrazolo[4,3-c]pyridin-3-yl)-2-(1-(4-fluorophenyl)ethoxy)phenyl)-1,1-difluoromethanesulfonamide]",10 to 1000
> 10000,"Cn1nc(-c2ccc(NS(=O)(=O)C(F)F)c(OCc3ccc(Cl)c(F)c3)c2)c2c(N)ncc(-c3cnn(C4CCOCC4)c3)c21 [Compound 132, N-(4-(4-amino-1-methyl-7-(1-(tetrahydro-2H-pyran-4-yl)-1H-pyrazol-4-yl)-1H-pyrazolo[4,3-c]pyridin-3-yl)-2-((4-chloro-3-fluorobenzyl)oxy)phenyl)-1,1-difluoromethanesulfonamide]",10 to 1000
> 10000,"COCC(Oc1cc(-c2nn(C)c3c(-c4cnn(C5CCN(C)CC5)c4)cnc(N)c23)ccc1NS(=O)(=O)C(F)F)c1ccc(F)cc1 (stereo not drawn) [Compound 139, N-(4-(4-amino-1-methyl-7-(1-(1-methylpiperidin-4-yl)-1H-pyrazol-4-yl)-1H-pyrazolo[4,3-c]pyridin-3-yl)-2-(1-(4-fluorophenyl)-2-methoxyethoxy)phenyl)-1,1-difluoromethanesulfonamide]",10 to 1000
> 10000,"CC(n1cc(-c2cnc(N)c3c(-c4ccc(NS(=O)(=O)C(F)F)c(O[C@@H](C)c5ccc(F)cc5)c4)nn(C)c23)cn1)C(F)(F)F (stereo partly drawn) [Compound 142, N-(4-(4-amino-1-methyl-7-(1-(1,1,1-trifluoropropan-2-yl)-1H-pyrazol-4-yl)-1H-pyrazolo[4,3-c]pyridin-3-yl)-2-((S)-1-(4-fluorophenyl)ethoxy)phenyl)-1,1-difluoromethanesulfonamide]",10 to 1000
> 10000,"C[C@H](Oc1cc(-c2nn(C)c3c(-c4cnn(C5CCN(C)C6(CC6)C5)c4)cnc(N)c23)ccc1NS(=O)(=O)C(F)F)c1ccc(F)cc1 (stereo partly drawn) [Compound 145, N-(4-(4-amino-1-methyl-7-(1-(4-methyl-4-azaspiro[2.5]octan-7-yl)-1H-pyrazol-4-yl)-1H-pyrazolo[4,3-c]pyridin-3-yl)-2-((S)-1-(4-fluorophenyl)ethoxy)phenyl)-1,1-difluoromethanesulfonamide]",< 10
> 10000,"C[C@H](Oc1cc(-c2nn(C)c3c(-c4cnn(C5CCC(F)(F)CC5)c4)cnc(N)c23)ccc1NS(=O)(=O)C(F)F)c1ccc(F)cc1 [Compound 146, (S)-N-(4-(4-amino-7-(1-(4,4-difluorocyclohexyl)-1H-pyrazol-4-yl)-1-methyl-1H-pyrazolo[4,3-c]pyridin-3-yl)-2-(1-(4-fluorophenyl)ethoxy)phenyl)-1,1-difluoromethanesulfonamide]",< 10
